Here are results for ten molecules from ChEMBL document CHEMBL6127041, “Dual-target inhibitors based on acetylcholinesterase: Novel agents for Alzheimer's disease” (Eur J Med Chem, 2024).

Test [1] addresses T1, Acetylcholinesterase (Homo sapiens, UniProt P22303). Put plainly: Inhibition of AChE (unknown origin).
The target of test [2] is T2, Amine oxidase [flavin-containing] B (Homo sapiens, UniProt P27338).
T2 sequence (P27338 whole entry): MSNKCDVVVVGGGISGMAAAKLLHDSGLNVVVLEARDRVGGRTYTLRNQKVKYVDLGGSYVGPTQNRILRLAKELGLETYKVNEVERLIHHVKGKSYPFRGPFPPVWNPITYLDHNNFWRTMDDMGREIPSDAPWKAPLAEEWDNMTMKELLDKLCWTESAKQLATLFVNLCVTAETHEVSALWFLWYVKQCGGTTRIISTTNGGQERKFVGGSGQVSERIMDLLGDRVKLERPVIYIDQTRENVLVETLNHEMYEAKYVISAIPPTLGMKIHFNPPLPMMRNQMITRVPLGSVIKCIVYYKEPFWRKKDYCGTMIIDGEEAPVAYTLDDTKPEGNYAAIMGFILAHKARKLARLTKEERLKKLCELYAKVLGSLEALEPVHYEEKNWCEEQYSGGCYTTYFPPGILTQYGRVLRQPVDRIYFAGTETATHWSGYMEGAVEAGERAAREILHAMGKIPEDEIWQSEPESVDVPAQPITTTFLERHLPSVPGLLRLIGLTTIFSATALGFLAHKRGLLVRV
Kind of test: Inhibition of human MAO-B using Tyramine hydrochloride as substrate preincubated for 30 mins followed by substrate addition and measured for 1 hr by fluorometric method.

Test [3] addresses T3, Cholinesterase (Homo sapiens, UniProt P06276). Kind of test: Inhibition of BChE (unknown origin).
Test [4] deals with High affinity cGMP-specific 3',5'-cyclic phosphodiesterase 9A (Homo sapiens, UniProt O76083). Kind of test: Inhibition of PDE9A (unknown origin).
Sequence of High affinity cGMP-specific 3',5'-cyclic phosphodiesterase 9A (O76083 whole entry): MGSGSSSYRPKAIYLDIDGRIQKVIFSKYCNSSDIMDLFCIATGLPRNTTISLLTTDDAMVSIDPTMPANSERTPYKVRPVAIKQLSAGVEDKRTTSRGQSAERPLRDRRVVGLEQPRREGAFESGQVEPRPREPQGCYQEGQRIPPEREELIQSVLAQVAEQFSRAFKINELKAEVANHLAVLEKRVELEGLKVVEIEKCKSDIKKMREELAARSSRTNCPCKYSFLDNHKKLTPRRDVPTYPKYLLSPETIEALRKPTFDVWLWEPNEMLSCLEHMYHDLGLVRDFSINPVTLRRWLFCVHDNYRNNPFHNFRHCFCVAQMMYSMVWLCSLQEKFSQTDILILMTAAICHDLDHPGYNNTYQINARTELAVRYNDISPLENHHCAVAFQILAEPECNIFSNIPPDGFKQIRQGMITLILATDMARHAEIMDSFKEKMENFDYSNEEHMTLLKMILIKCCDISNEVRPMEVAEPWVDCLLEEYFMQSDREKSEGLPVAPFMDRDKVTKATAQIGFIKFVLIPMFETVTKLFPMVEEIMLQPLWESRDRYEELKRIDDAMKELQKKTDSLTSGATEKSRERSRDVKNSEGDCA
The target in test [5] is T4, Acetylcholinesterase (Electrophorus electricus, UniProt O42275). Put plainly: Inhibition of electric eel AChE.
T4 sequence (O42275 whole entry): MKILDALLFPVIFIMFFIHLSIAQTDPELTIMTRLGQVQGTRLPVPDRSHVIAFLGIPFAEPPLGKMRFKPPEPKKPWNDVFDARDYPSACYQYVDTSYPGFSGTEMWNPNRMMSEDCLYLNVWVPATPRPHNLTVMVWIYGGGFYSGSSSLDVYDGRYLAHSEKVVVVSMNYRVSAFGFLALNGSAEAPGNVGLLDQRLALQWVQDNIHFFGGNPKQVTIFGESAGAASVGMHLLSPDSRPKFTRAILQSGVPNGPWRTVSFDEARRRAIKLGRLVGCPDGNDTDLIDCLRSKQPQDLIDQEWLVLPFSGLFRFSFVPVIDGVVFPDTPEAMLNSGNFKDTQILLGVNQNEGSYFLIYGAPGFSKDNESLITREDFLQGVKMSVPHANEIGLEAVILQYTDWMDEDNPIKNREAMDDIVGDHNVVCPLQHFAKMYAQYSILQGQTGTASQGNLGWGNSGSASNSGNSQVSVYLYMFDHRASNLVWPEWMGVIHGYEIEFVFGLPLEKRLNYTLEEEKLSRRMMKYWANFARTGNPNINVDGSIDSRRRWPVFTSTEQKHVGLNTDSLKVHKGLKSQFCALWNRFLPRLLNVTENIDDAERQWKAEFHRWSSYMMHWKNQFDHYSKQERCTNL
In test [6] the target is T1, Acetylcholinesterase. Put plainly: Inhibition of human AChE using acetylthiocholine iodide as substrate after 15 mins by Ellman's method. (DTNB colorimetry detects thiols as they appear.)
The target of test [7] is T4, Acetylcholinesterase. Kind of test: Inhibition of electric eel AChE by Ellman's method.
The target of test [8] is T5, Glycogen synthase kinase-3 beta (Homo sapiens, UniProt P49841).
T5 sequence (P49841 whole entry): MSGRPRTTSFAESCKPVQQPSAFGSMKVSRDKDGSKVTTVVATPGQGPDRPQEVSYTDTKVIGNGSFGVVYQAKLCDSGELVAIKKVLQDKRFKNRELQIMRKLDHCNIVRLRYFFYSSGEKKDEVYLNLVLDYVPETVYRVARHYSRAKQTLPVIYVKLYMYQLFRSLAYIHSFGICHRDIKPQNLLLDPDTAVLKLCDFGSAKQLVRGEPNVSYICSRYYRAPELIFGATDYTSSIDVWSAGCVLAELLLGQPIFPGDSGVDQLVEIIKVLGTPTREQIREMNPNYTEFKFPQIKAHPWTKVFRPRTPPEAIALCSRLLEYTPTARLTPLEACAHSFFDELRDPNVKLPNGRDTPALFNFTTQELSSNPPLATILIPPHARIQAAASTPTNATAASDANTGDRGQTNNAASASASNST
Description: Inhibition of human GSK3beta by TR-FRET analysis
The target in another test is Beta-secretase 1 (Homo sapiens, UniProt P56817). Put plainly: Inhibition of human BACE-1 by FRET assay.
Sequence of Beta-secretase 1 (P56817 whole entry): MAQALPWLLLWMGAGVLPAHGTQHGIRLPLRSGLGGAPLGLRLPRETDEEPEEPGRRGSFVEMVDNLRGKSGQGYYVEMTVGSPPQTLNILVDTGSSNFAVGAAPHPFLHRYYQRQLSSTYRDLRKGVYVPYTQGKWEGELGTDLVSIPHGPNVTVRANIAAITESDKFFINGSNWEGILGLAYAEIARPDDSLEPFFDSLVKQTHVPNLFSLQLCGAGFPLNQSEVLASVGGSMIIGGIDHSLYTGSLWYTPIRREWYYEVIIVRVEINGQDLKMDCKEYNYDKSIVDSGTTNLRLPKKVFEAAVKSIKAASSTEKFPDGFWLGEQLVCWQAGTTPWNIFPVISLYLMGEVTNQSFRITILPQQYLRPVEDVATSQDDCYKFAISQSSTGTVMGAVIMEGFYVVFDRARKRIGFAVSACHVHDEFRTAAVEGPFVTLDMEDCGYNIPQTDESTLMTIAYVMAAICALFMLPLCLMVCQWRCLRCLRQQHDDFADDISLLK
The next test relates to SH-SY5Y. Put plainly: Cytotoxicity against human SH-SY5Y cells assessed as reduction in cell viability at 10 uM measured after 24 hrs by MTT assay relative to control. Format: functional. (Formazan colour is commonly taken as a measure of viable cells.)
Test [9] addresses T1, Acetylcholinesterase.
The target in test [10] is T1, Acetylcholinesterase. Kind of test: Inhibition of AChE (unknown origin) by Ellman's method.
Test [11] concerns the target cGMP-specific 3',5'-cyclic phosphodiesterase (Homo sapiens, UniProt O76074). Kind of test: Inhibition of PDE5A (unknown origin) using […] as substrate measured after 1 hr by fluorescence polarization assay.
Test [12] has as its target T1, Acetylcholinesterase. Put plainly: Inhibition of human AChE using acetylthiocholine iodide as substrate measured for 1 hr by Ellman's method.
In test [13] the target is T3, Cholinesterase. Kind of test: Inhibition of human BChE using butyrylthiocholineiodide as substrate measured for 30 mins by Ellman's method.
The target of test [14] is T1, Acetylcholinesterase. Kind of test: Inhibition of human AChE using acetylthiocholine iodide as substrate preincubated for 15 mins followed by substrate addition and measured for 30 mins by Ellman's method.
The target in test [15] is T5, Glycogen synthase kinase-3 beta. Kind of test: Inhibition of GSK3beta (unknown origin).

A word on the IC50: it is the midpoint of a concentration-inhibition curve. Low values mean inhibition by little substance, high ones a need for much substance.

T1 sequence (P22303 whole entry): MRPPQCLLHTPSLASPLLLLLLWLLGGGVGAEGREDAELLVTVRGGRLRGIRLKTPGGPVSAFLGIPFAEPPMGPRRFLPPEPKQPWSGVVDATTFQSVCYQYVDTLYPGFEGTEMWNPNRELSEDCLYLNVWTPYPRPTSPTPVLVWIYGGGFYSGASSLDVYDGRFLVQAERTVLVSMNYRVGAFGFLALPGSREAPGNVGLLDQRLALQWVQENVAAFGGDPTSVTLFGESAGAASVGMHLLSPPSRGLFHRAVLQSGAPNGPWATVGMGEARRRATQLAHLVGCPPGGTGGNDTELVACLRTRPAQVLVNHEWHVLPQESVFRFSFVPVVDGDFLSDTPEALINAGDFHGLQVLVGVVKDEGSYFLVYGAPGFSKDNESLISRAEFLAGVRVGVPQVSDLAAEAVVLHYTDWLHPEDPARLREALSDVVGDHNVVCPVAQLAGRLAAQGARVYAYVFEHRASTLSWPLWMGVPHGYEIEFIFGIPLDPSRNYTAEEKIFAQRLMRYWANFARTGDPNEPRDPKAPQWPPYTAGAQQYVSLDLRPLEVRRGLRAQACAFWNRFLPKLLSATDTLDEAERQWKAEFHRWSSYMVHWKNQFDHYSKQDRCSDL
T3 sequence (P06276 whole entry): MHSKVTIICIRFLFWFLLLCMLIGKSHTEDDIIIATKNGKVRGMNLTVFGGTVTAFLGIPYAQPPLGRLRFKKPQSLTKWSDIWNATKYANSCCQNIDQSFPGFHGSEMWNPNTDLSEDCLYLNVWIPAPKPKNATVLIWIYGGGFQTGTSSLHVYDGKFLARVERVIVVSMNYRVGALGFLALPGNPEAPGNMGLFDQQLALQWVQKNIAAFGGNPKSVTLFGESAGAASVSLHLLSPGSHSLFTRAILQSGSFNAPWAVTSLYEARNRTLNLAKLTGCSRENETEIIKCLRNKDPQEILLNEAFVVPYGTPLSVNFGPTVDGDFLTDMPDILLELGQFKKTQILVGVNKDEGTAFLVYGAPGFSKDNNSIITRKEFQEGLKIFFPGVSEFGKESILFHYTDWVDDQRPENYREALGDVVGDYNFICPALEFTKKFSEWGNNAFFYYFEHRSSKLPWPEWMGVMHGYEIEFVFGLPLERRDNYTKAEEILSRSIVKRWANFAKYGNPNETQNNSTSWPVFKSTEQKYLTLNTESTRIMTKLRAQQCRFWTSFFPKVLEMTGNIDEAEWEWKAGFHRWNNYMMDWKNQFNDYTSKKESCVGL

Consider `COc1ccc(/C=C/C(=O)c2ccccc2O)cc1OC`, for which the IC50 turned out to be 28000 nM at Acetylcholinesterase [1] and 1410 nM in [2]. For `O=c1[nH]c(CNCCC2CCN(Cc3ccccc3)CC2)nc2c1cnn2C1CCCC1`, the IC50 on Acetylcholinesterase [1] is 290 nM; at Cholinesterase [3], 5800 nM; in test [4] it was 380 nM.

Molecule `O=C1c2c(O)cc(OCCCCCN3CCCCC3)cc2OC2C=CC=CC12` (stereo not drawn) yielded an IC50 against Acetylcholinesterase [5] of 469 nM.

On to `CNC(=O)c1sc(-c2ccnc(NC(=O)C3CC3)c2)nc1OC1CCN(Cc2ccccc2)CC1`, for which the IC50 against Acetylcholinesterase [6] turned out to be 73 nM. `O=CNc1nccc2c1[nH]c1cc(C(=O)NCCC3CCN(Cc4ccccc4F)CC3)ccc12`: the IC50 at Acetylcholinesterase [7] worked out at 270 nM; in test [8] it was 6780 nM. Turning to `c1ccc2oc(CNCCCCCCCNc3c4c(cc5ccccc35)CCCC4)cc2c1`, the IC50 at Beta-secretase 1 stood at 1350 nM; at Acetylcholinesterase [9], 0.86 nM. The Activity in the test on SH-SY5Y worked out at 63%. Regarding `O=C1[C@H]2Cc3c([nH]c4ccccc34)[C@@H](c3ccc4c(c3)OCO4)N2C(=O)CN1CCC1CCN(Cc2ccccc2)CC1`, the IC50 at Acetylcholinesterase [10] was 30 nM; in test [11], 150 nM. Consider `[O-]/[N+](=C\c1ccc2cccc(O)c2n1)Cc1ccccc1`, for which the IC50 on Acetylcholinesterase [12] was found to be 30 nM; against Cholinesterase [13] it was 1 nM. The molecule `O=C1/C(=C/c2ccc(O)cc2)Oc2cc(O)ccc21` returned an IC50 against Acetylcholinesterase [14] of 202000 nM. `Cn1c(NCC(=O)c2ccccc2)nc(-c2ccncc2)cc1=O` showed an IC50 in [15] of 5630 nM.
